Read-outs that look alike come from different tables or passages of the source. *1 amine or outer side, *2 acyl side, *3 side chain or, on linkers, in order; H or OH if unused. Where a SMILES comes first, the peptide text is derived from it. Side-chain parts run from the residue outwards. [ ]: non-standard residue; d: D form. The star is where a group is joined. Decanoyl(10-(4-HOOC-PhO)) = O=C(O)c1ccc(OCCCCCCCCCC(=O)*)cc1; αMePhe(2-F) = C[C@](N)(Cc1ccccc1F)C(=O)O; γGlu = O=C(O)[C@H](CCC(=O)[*:2])N[*:1]; αMeY = C[C@](N)(Cc1ccc(O)cc1)C(=O)O; αMeL = CC(C)C[C@](C)(N)C(=O)O; Orn = NCCC[C@H](N)C(=O)O; AEEA = NCCOCCOCC(=O)O; Aib = CC(C)(N)C(=O)O
Assays:
Type in all cases: cell-based
hGIPR = target: T1, hGIPR (Homo sapiens, UniProt P48546); assay: Functional cAMP formation (HTRF) in HEK-293 clonal cells expressing hGIPR, 0.1% bovine casein, without or with 1.0% human serum albumin; settings: for Emax: percent of maximal response to GIP(1-42)NH2, read-out: hGIPR Emax, % ± SEM; for EC50: geometric mean
T1 construct: expressed in transfected cells
T1 sequence (P48546 22-466): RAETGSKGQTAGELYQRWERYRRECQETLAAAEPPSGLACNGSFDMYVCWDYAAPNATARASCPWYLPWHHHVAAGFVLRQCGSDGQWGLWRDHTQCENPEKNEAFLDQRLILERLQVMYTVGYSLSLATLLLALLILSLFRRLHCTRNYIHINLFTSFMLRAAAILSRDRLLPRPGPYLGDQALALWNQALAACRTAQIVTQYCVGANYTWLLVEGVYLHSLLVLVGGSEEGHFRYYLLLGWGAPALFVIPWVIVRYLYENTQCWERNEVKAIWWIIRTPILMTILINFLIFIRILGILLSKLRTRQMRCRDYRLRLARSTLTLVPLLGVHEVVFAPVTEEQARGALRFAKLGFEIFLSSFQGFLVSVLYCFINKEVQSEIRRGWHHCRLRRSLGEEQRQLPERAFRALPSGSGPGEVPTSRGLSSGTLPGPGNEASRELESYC
How it was run: (§1)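 Readings of the HTRF 665/620 nm ratio, which falls as cAMP rises, were converted to nM cAMP using a standard curve after 30 min peptide exposure at 37° C.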

hGLP-1R = hGLP-1R (Homo sapiens, UniProt P43220); assay: Functional cAMP formation (HTRF) in HEK-293 clonal cells expressing hGLP-1R, 0.1% bovine casein, without or with 1.0% human serum albumin; parameters: expressed in transfected cells; settings: for Emax: percent of maximal response to GLP-1(7-36)NH2; for EC50: geometric mean
Chain of hGLP-1R (P43220 24-463): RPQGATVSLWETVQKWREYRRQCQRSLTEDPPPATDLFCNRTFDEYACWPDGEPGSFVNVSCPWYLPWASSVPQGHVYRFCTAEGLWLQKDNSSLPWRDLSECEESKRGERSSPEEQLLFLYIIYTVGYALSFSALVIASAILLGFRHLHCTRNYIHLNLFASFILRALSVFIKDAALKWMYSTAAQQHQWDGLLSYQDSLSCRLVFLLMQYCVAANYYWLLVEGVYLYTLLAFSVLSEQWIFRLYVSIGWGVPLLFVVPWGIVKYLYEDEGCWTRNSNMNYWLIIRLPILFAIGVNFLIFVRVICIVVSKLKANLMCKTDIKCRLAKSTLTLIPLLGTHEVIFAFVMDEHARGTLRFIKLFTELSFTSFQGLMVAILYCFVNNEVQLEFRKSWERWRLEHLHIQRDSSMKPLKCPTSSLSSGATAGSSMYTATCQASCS
How it was run: as §1

hGCGR = target: T2, hGCGR (Homo sapiens, UniProt P47871); assay: Functional cAMP formation (HTRF) in HEK-293 clonal cells expressing hGCGR, 0.1% bovine casein, without or with 1.0% human serum albumin; settings: geometric mean
T2 construct: expressed in transfected cells
T2 sequence (P47871 26-477): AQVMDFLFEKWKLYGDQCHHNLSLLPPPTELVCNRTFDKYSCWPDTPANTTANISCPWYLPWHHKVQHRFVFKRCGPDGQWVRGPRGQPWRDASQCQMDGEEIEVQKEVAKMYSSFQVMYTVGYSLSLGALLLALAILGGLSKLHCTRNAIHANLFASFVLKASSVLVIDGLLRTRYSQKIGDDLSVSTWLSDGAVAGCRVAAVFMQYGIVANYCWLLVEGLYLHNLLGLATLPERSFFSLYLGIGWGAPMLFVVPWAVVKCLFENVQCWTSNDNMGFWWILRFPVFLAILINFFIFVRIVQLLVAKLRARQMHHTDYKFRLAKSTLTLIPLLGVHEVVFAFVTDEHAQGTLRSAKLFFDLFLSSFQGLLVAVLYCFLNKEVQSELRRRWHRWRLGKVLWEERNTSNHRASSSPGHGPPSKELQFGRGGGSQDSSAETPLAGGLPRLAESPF
How it was run: as §1

[1] = HEK293, 0.1% bovine casein and 1.0% human serum albumin, 37° C.
[2] = HEK293, cAMP, 37° C., 0.1% bovine casein, arithmetic mean
[3] = HEK293, cAMP, 37° C., 0.1% bovine casein, arithmetic mean, read-out: hGLP-1R Emax, % ± SEM
[4] = 0.1% bovine casein and 1.0% human serum albumin, 37° C., read-out: hGCGR EC50, nM (SEM, n)
[5] = cAMP, 37° C., 0.1% bovine casein (no human serum albumin), read-out: hGCGR EC50, nM (SEM, n)

## CC[C@H](C)[C@H](NC(=O)[C@H](CC(C)C)NC(=O)[C@](C)(Cc1ccc(O)cc1)NC(=O)[C@@H](CCC(=O)O)NC(=O)[C@@H](NC(=O)[C@H](Cc1ccccc1)NC(=O)[C@H](CCC(=O)O)NC(=O)C(C)(C)NC(=O)[C@H](CCC(N)=O)NC(=O)[C@H](C)NC(=O)[C@H](CCCCNC(=O)COCCOCCNC(=O)COCCOCCNC(=O)CC[C@H](NC(=O)CCCCCCCCCCCCC(=O)O)C(=O)O)NC(=O)[C@H](CCCN)NC(=O)[C@H](CC(=O)O)NC(=O)[C@H](CC(C)C)NC(=O)[C@](C)(CC(C)C)NC(=O)[C@@H](NC(=O)[C@H](CO)NC(=O)[C@H](Cc1ccc(OC)cc1)NC(=O)[C@H](CC(=O)O)NC(=O)[C@H](CO)NC(=O)[C@@H](NC(=O)[C@](C)(Cc1ccccc1F)NC(=O)[C@@H](NC(=O)CNC(=O)[C@H](CCC(=O)O)NC(=O)C(C)(C)NC(=O)[C@@H](N)Cc1ccc(O)cc1)[C@@H](C)O)[C@@H](C)O)[C@@H](C)CC)[C@@H](C)CC)C(=O)N[C@@H](CCC(=O)O)C(=O)NCC(=O)NCC(=O)N1CCC[C@H]1C(=O)N[C@@H](CO)C(=O)N[C@@H](CO)C(=O)NCC(=O)N[C@@H](C)C(=O)N1CCC[C@H]1C(=O)N1CCC[C@H]1C(=O)N1CCC[C@H]1C(=O)N[C@@H](CO)C(=O)N[C@@H](CCCCNC(=O)COCCOCCNC(=O)COCCOCCNC(=O)CC[C@H](NC(=O)CCCCCCCCCCCCC(=O)O)C(=O)O)C(N)=O [Example 261]
hGIPR; [1]
  Emax: 75.7%
hGIPR; [2]
  Emax: 105%
hGIPR; cAMP, 37° C., 0.1% bovine casein (no human serum albumin), read-out: hGIPR EC50, nM (SEM, n)
  EC50: 0.025 nM
hGLP-1R; [3]
  Emax: 97.9%
hGCGR; [4]
  EC50: > 9950 nM
hGCGR; [5]
  EC50: > 9950 nM

## CC[C@H](C)[C@H](NC(=O)[C@H](CCCN)NC(=O)[C@H](CC(=O)O)NC(=O)[C@H](CC(C)C)NC(=O)[C@](C)(CC(C)C)NC(=O)[C@@H](NC(=O)[C@H](CO)NC(=O)[C@H](Cc1ccc2ccccc2c1)NC(=O)[C@H](CC(=O)O)NC(=O)[C@H](CO)NC(=O)[C@@H](NC(=O)[C@](C)(Cc1ccccc1F)NC(=O)[C@@H](NC(=O)CNC(=O)[C@H](CCC(=O)O)NC(=O)C(C)(C)NC(=O)[C@@H](N)Cc1ccc(O)cc1)[C@@H](C)O)[C@@H](C)O)[C@@H](C)CC)C(=O)N[C@@H](C)C(=O)N[C@@H](CCC(N)=O)C(=O)NC(C)(C)C(=O)N[C@@H](CCC(=O)O)C(=O)N[C@@H](Cc1ccccc1)C(=O)N[C@H](C(=O)N[C@@H](CCCCNC(=O)COCCOCCNC(=O)COCCOCCNC(=O)CC[C@H](NC(=O)CCCCCCCCCCCCC(=O)O)C(=O)O)C(=O)N[C@@](C)(Cc1ccc(O)cc1)C(=O)N[C@@H](CC(C)C)C(=O)N[C@H](C(=O)N[C@@H](CCCCNC(=O)COCCOCCNC(=O)COCCOCCNC(=O)CC[C@H](NC(=O)CCCCCCCCCCCCC(=O)O)C(=O)O)C(=O)NCC(=O)NCC(=O)N1CCC[C@H]1C(=O)N[C@@H](CO)C(=O)N[C@@H](CO)C(=O)NCC(=O)N[C@@H](C)C(=O)N1CCC[C@H]1C(=O)N1CCC[C@H]1C(=O)N1CCC[C@H]1C(=O)N[C@@H](CO)C(N)=O)[C@@H](C)CC)[C@@H](C)CC [Example 252]
hGIPR; [1]
  Emax: 87.2%
hGIPR; [2]
  Emax: 109%
hGLP-1R; HEK293, 0.1% bovine casein and 1.0% human serum albumin, 37° C., read-out: hGLP-1R Emax, % ± SEM
  Emax: 115%
hGLP-1R; [3]
  Emax: 115%
hGLP-1R; cAMP, 37° C., 0.1% bovine casein (no human serum albumin), read-out: hGLP-1R EC50, nM (SEM, n)
  EC50: 0.555 nM
hGCGR; [4]
  EC50: > 9950 nM
hGCGR; [5]
  EC50: > 9950 nM

## CC[C@H](C)[C@H](NC(=O)[C@H](CC(C)C)NC(=O)[C@](C)(Cc1ccc(O)cc1)NC(=O)[C@@H](CCC(=O)O)NC(=O)[C@@H](NC(=O)[C@H](Cc1ccccc1)NC(=O)[C@H](CCC(=O)O)NC(=O)C(C)(C)NC(=O)[C@H](CCC(N)=O)NC(=O)[C@H](C)NC(=O)[C@H](CCCCNC(=O)COCCOCCNC(=O)COCCOCCNC(=O)CC[C@H](NC(=O)CCCc1ccc(C(C)(C)C)cc1)C(=O)O)NC(=O)[C@H](CCCN)NC(=O)[C@H](CC(=O)O)NC(=O)[C@H](CC(C)C)NC(=O)[C@](C)(CC(C)C)NC(=O)[C@@H](NC(=O)[C@H](CO)NC(=O)[C@H](Cc1ccncc1)NC(=O)[C@H](CC(=O)O)NC(=O)[C@H](CO)NC(=O)[C@@H](NC(=O)[C@](C)(Cc1ccccc1F)NC(=O)[C@@H](NC(=O)CNC(=O)[C@H](CCC(=O)O)NC(=O)C(C)(C)NC(=O)[C@@H](N)Cc1ccc(O)cc1)[C@@H](C)O)[C@@H](C)O)[C@@H](C)CC)[C@@H](C)CC)C(=O)N[C@@H](CCCCNC(=O)COCCOCCNC(=O)COCCOCCNC(=O)CC[C@H](NC(=O)CCCc1ccc(C(C)(C)C)cc1)C(=O)O)C(=O)NCC(=O)NCC(=O)N1CCC[C@H]1C(=O)N[C@@H](CO)C(=O)N[C@@H](CO)C(=O)NCC(=O)N[C@@H](C)C(=O)N1CCC[C@H]1C(=O)N1CCC[C@H]1C(=O)N1CCC[C@H]1C(=O)N[C@@H](CO)C(N)=O [Example 133]
hGIPR; 0.1% bovine casein and 1.0% human serum albumin, 37° C., read-out: hGIPR EC50, nM (SEM, n)
  EC50: 0.0695 nM
hGIPR; [1]
  Emax: 89.1 ± 4.64%
hGIPR; cAMP, incubated at 37° C., 0.1% bovine casein (no human serum albumin), read-out: hGIPR EC50, nM (SEM, n)
  EC50: 0.018 nM
hGLP-1R; 0.1% bovine casein and 1.0% human serum albumin, 37° C., read-out: hGLP-1R EC50, nM (SEM, n)
  EC50: 1.17 nM
hGCGR; [4]
  EC50: > 9950 nM
hGCGR; cAMP, incubated at 37° C., 0.1% bovine casein (no human serum albumin), read-out: hGCGR EC50, nM (SEM, n)
  EC50: > 9950 nM

## CC[C@H](C)[C@H](NC(=O)[C@H](CC(C)C)NC(=O)[C@](C)(Cc1ccc(O)cc1)NC(=O)[C@@H](CCC(=O)O)NC(=O)[C@@H](NC(=O)[C@H](Cc1ccccc1)NC(=O)[C@H](CCCCNC(=O)COCCOCCNC(=O)COCCOCCNC(=O)CC[C@H](NC(=O)CCCCCCCCCOc1ccc(C(=O)O)cc1)C(=O)O)NC(=O)C(C)(C)NC(=O)[C@H](CCC(N)=O)NC(=O)[C@H](C)NC(=O)[C@H](CCCCNC(=O)COCCOCCNC(=O)COCCOCCNC(=O)CC[C@H](NC(=O)CCCCCCCCCOc1ccc(C(=O)O)cc1)C(=O)O)NC(=O)[C@H](CCCN)NC(=O)[C@H](CC(=O)O)NC(=O)[C@H](CC(C)C)NC(=O)[C@](C)(CC(C)C)NC(=O)[C@@H](NC(=O)[C@H](CO)NC(=O)[C@H](Cc1ccc(OC)cc1)NC(=O)[C@H](CC(=O)O)NC(=O)[C@H](CO)NC(=O)[C@@H](NC(=O)[C@](C)(Cc1ccccc1F)NC(=O)[C@@H](NC(=O)CNC(=O)[C@H](CCC(=O)O)NC(=O)C(C)(C)NC(=O)[C@@H](N)Cc1ccc(O)cc1)[C@@H](C)O)[C@@H](C)O)[C@@H](C)CC)[C@@H](C)CC)C(=O)N[C@@H](CCC(=O)O)C(=O)NCC(=O)NCC(=O)N1CCC[C@H]1C(=O)N[C@@H](CO)C(=O)N[C@@H](CO)C(=O)NCC(=O)N[C@@H](C)C(=O)N1CCC[C@H]1C(=O)N1CCC[C@H]1C(=O)N1CCC[C@H]1C(=O)N[C@@H](CO)C(N)=O [Example 277] (H-Y[Aib]EGT[αMePhe(2-F)]TSDY(Me)SI[αMeL]LD[Orn]K([AEEA-AEEA-γGlu-Decanoyl(10-(4-HOOC-PhO))])AQ[Aib]K([AEEA-AEEA-γGlu-Decanoyl(10-(4-HOOC-PhO))])FI[dE][αMeY]LIEGGPSSGAPPPS-NH2)
hGIPR; hGIPR EC50, nM (SEM, n), cAMP, 37° C., 0.1% bovine casein (no human serum albumin)
  EC50: 0.0176 nM
hGLP-1R; HEK293, read-out: hGLP-1R Emax, % ± SEM, 0.1% bovine casein and 1.0% human serum albumin, 37° C.
  Emax: 93.1%
hGLP-1R; HEK293, read-out: hGLP-1R Emax, % ± SEM, cAMP, 37° C., 0.1% bovine casein, arithmetic mean
  Emax: 97.1%
hGLP-1R; hGLP-1R EC50, nM (SEM, n), cAMP, 37° C., 0.1% bovine casein (no human serum albumin)
  EC50: 0.225 nM
hGCGR; hGCGR EC50, nM (SEM, n), 0.1% bovine casein and 1.0% human serum albumin, 37° C.
  EC50: > 9950 nM
hGCGR; hGCGR EC50, nM (SEM, n), cAMP, 37° C., 0.1% bovine casein (no human serum albumin)
  EC50: > 9950 nM

Reference: patent US20230265151A1, “GIP/GLP1 CO-AGONIST COMPOUNDS” (priority 2020, published 2023)
